29 compounds from ChEMBL document CHEMBL2424646, “Design, synthesis and biological evaluation of novel mansonone E derivatives prepared via CuAAC click chemistry as topoisomerase II inhibitors” (Eur J Med Chem, 2013) can be followed below.

Active and inactive are the calls of the source. The rule behind the calls is not given here. Bounds are passed on as bounds.

In general, IC50 refers to the concentration needed to halve the response being measured. A high value points to weaker potency in that assay.

For one test, the system named is HL-60. The test can be described thus: Cytotoxicity against human HL60 cells after 48 hrs by MTT assay. Format: functional, cell-based. To be noted: HL-60, 48 h.
The subject of the next test is K562. Put plainly: Cytotoxicity against human K562 cells after 48 hrs by MTT assay. Format: functional, cell-based. Particulars: K562, 48 h. Background: Formazan colour is commonly taken as a measure of viable cells.
The target of test [1] is T1, DNA topoisomerase 2-alpha (Homo sapiens, UniProt P11388). The test can be described thus: Inhibition of human DNA topoisomerase 2alpha using pBR322 DNA at 2 uM after 30 mins by agarose gel electrophoresis.
The next test deals with A549. Put plainly: Cytotoxicity against human A549 cells after 48 hrs by MTT assay. Type of test: functional, cell-based. To be noted: A549, 48 h.
Test [2] concerns the target T1, DNA topoisomerase 2-alpha. The test can be described thus: Inhibition of human DNA topoisomerase 2alpha-mediated relaxation of supercoiled pBR322 at 20 uM after 30 mins by agarose gel electrophoresis.
The next test deals with HeLa. The test can be described thus: Cytotoxicity against human HeLa cells after 48 hrs by MTT assay. Type of test: functional, cell-based.
Test [3] concerns the target T1, DNA topoisomerase 2-alpha. Particulars: 100 uM.
Description: Inhibition of human topoisomerase 2alpha assessed as formation of linear form of supercoiled pBR322 DNA at 100 uM after 30 mins by agarose gel electrophoresis
The target in test [4] is T1, DNA topoisomerase 2-alpha. The test can be described thus: Inhibition of human topoisomerase 2alpha assessed as formation of linear form of supercoiled pBR322 DNA at 50 uM after 30 mins by agarose gel electrophoresis.
The target of test [5] is T1, DNA topoisomerase 2-alpha. The test can be described thus: Inhibition of human DNA topoisomerase 2alpha using pBR322 DNA after 30 mins by agarose gel electrophoresis.
Test [6] has as its target T1, DNA topoisomerase 2-alpha. The test can be described thus: Ratio of mansonone-E IC50 to compound IC50 for human DNA topoisomerase 2alpha.

T1 sequence (P11388 whole entry): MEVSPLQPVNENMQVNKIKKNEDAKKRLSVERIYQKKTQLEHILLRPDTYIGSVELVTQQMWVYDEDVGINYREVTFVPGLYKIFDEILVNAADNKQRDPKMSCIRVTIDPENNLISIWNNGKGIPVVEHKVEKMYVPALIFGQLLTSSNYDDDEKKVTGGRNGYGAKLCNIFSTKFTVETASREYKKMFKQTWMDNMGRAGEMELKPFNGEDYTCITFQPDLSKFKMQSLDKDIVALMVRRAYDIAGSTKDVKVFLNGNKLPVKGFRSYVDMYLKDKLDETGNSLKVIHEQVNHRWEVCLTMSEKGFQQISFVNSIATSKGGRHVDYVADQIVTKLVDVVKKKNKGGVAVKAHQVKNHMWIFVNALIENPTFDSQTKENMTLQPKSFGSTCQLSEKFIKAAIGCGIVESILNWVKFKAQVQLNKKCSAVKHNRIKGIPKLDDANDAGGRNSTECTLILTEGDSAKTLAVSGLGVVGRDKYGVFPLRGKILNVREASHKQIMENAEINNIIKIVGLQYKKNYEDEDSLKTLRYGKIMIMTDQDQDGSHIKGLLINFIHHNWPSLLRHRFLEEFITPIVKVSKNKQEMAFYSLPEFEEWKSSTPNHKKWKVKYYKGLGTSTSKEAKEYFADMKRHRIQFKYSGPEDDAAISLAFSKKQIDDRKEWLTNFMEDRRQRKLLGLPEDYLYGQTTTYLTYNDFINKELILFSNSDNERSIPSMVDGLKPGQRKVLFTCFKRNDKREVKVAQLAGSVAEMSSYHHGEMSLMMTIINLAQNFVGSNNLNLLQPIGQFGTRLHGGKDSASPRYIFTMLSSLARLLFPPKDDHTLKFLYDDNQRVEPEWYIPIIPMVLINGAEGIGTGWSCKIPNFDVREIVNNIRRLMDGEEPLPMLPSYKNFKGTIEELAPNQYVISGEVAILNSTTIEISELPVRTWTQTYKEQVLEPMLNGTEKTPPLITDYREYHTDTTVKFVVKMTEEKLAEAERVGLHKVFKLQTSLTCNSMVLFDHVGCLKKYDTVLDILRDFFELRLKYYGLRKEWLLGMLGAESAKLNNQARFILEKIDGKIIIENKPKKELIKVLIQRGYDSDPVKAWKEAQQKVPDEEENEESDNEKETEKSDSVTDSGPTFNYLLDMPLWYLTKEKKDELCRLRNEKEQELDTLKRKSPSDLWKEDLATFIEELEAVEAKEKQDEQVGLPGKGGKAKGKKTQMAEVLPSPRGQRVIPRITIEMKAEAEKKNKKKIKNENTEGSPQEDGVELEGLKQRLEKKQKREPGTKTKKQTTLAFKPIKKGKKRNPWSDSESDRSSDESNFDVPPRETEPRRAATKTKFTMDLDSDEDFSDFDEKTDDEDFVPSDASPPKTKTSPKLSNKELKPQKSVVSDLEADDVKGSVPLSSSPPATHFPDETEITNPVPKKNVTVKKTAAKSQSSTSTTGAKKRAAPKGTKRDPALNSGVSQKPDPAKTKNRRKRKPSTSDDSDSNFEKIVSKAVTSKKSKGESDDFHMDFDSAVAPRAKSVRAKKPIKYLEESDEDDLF

Turning to `O=C1C(=O)c2cccc3c2C(=C1Cl)OCC3n1cc(-c2ccc(Cl)cc2)nn1` (centres undefined), the IC50 was determined as 12.2 µM with HL-60, 20.6 µM in the test on K562, 77.7 µM in the test with A549 and 67.4 µM in the test on HeLa. Moreover, the inhibition entry in [1] and in test [2] was “Active” each time.

As for `O=C1C(=O)c2cccc3c2C(=C1Br)OCC3n1cc(-c2ccc(Cl)cc2)nn1` (centres undefined), the IC50 is 15.4 µM in the test on HL-60, 29 µM with K562, 50 µM in the test with A549 and 30.6 µM in the test on HeLa. The inhibition entry in test [1] and in test [2] was “Active” in each case.

`CCOC(=O)c1cn(C2COC3=C(Cl)C(=O)C(=O)c4cccc2c43)nn1` (centres undefined): the IC50 in the test on HL-60 is more than 100 µM; in the test with K562, more than 50 µM; with A549, more than 100 µM; in the test on HeLa it was more than 100 µM. Further, the inhibition result in test [1] and in [2] was “Active” each time.

As to `CCCCc1ccc(-c2cn(C3COC4=C(Br)C(=O)C(=O)c5cccc3c54)nn2)cc1` (centres undefined), the IC50 was 2.55 µM with HL-60, 3.87 µM in the test with K562, 18.3 µM with A549 and 12.5 µM with HeLa. Also, the inhibition result in test [1] and in test [2] was “Active” each time.

Consider `COC(=O)c1nnn(C2COC3=C(Cl)C(=O)C(=O)c4cccc2c43)c1C(=O)OC` (centres undefined), for which the IC50 with HL-60 is more than 100 µM; in the test on K562, more than 50 µM; in the test with A549, more than 100 µM; in the test with HeLa, more than 100 µM. Also, the inhibition result in test [1] and in [2] was “Active” each time.

`COc1cc([C@@H]2c3cc4c(cc3[C@@H](O[C@@H]3O[C@@H]5CO[C@@H](C)O[C@H]5[C@H](O)[C@H]3O)[C@H]3COC(=O)[C@H]23)OCO4)cc(OC)c1O` [ETOPOSIDE]: the IC50 in the test on HL-60 amounted to 0.33 µM; in the test on K562, 8.45 µM; with HeLa, 63.7 µM. For the same compound, in [3], the inhibition result is “Active”.

On to `Cc1ccc(-c2cn(C3COC4=C(Cl)C(=O)C(=O)c5cccc3c54)nn2)cc1` (centres undefined), for which the IC50 in the test on HL-60 came to 19.8 µM; with K562 it was 18.3 µM; with A549 it was 55.5 µM; in the test on HeLa, 32.8 µM. The inhibition entry in [1] and in [2] was “Active” throughout.

Take `COC(=O)c1cn(C2COC3=C(Cl)C(=O)C(=O)c4cccc2c43)nn1` (centres undefined): the IC50 in the test with HL-60 was 98 µM; in the test with K562 it was more than 50 µM; with A549 it was more than 100 µM; with HeLa, more than 100 µM. For the same compound, the inhibition result in test [1] and in test [2] was “Active” throughout.

Regarding `COC(=O)c1cn(C2COC3=C(Br)C(=O)C(=O)c4cccc2c43)nn1` (centres undefined), the IC50 with HL-60, with K562, in the test with A549 and with HeLa was more than 50 µM throughout. For the same compound, the inhibition result in test [1] and in [2] was “Active” in each case.

Consider `COC(=O)c1nnn(C2COC3=C(Br)C(=O)C(=O)c4cccc2c43)c1C(=O)OC` (centres undefined), for which the IC50 with HL-60, in the test with K562, with A549 and in the test on HeLa was more than 50 µM each time. The inhibition entry in test [1] and in test [2] was “Active” in each case.

Consider `O=C1C(=O)c2cccc3c2C(=C1Br)OCC3n1cc(-c2ccccc2)nn1` (centres undefined), for which the IC50 with HL-60 came out at 29.3 µM; in the test on K562 it was 40.1 µM; with A549, 50 µM; with HeLa it was 42.9 µM. Further, the inhibition entry in [1] and in [2] was “Active” each time.

`O=C1C(=O)c2cccc3c2C(=C1Cl)OCC3n1cc(-c2ccc(F)cc2)nn1` (centres undefined): the concentration for half-maximal inhibition (IC50) was found to be 10.7 µM in the test with HL-60, 16.7 µM in the test on K562, 43.1 µM in the test with A549 and 48.4 µM in the test on HeLa. For the same compound, the inhibition result in test [1] and in test [2] was “Active” throughout.

For `O=C1C(=O)c2cccc3c2C(=C1Cl)OCC3n1cc(-c2ccccc2)nn1` (centres undefined), the IC50 in the test with HL-60 amounted to 18.4 µM; in the test on K562 it was 21.4 µM; with A549, 84.5 µM; in the test on HeLa, 70.2 µM. For the same compound, the inhibition result in [1] and in test [2] was “Active” throughout.

In the case of `CCCCCc1ccc(-c2cn(C3COC4=C(Cl)C(=O)C(=O)c5cccc3c54)nn2)cc1` (centres undefined), the IC50 with HL-60 came out at 3.54 µM; in the test on K562, 3.51 µM; in the test with A549, 12.8 µM; with HeLa, 16.9 µM. In addition, the inhibition entry in test [1] and in test [2] was “Active” throughout.

On to `CCCCc1ccc(-c2cn(C3COC4=C(Cl)C(=O)C(=O)c5cccc3c54)nn2)cc1` (centres undefined), for which the IC50 in the test with HL-60 was 2.55 µM; in the test with K562, 5.67 µM; with A549, 11.4 µM; in the test with HeLa, 18 µM. Moreover, the inhibition result in test [1] and in test [2] was “Active” throughout.

Turning to `O=C1C(=O)c2cccc3c2C(=C1Br)OCC3n1cc(-c2ccccn2)nn1` (centres undefined), the half-maximal inhibitory concentration (IC50) with HL-60 was 2.11 µM; in the test on K562, 3.23 µM; in the test with A549, 15.3 µM; with HeLa, 16.2 µM. For the same compound, the inhibition entry in [1] and in test [2] was “Active” throughout.

`CCCc1ccc(-c2cn(C3COC4=C(Br)C(=O)C(=O)c5cccc3c54)nn2)cc1` (centres undefined): the half-maximal inhibitory concentration (IC50) is 1.49 µM with HL-60, 2.82 µM with K562, 17.3 µM in the test on A549 and 11.8 µM with HeLa. Besides, the inhibition result in test [1] and in test [2] was “Active” in each case. In [4], the inhibition result is “inactive”.

For the compound `Cc1ccc(-c2cn(C3COC4=C(Br)C(=O)C(=O)c5cccc3c54)nn2)cc1` (centres undefined), the concentration for half-maximal inhibition (IC50) was 10.3 µM in the test with HL-60, 18.8 µM in the test with K562, 42.9 µM in the test on A549 and 26.6 µM in the test with HeLa. Moreover, the inhibition entry in [1] and in test [2] was “Active” throughout.

With `CCCCCc1ccc(-c2cn(C3COC4=C(Br)C(=O)C(=O)c5cccc3c54)nn2)cc1` (centres undefined), the IC50 in the test with HL-60 stood at 2.34 µM; in test [5] it was 0.92 µM; in the test on K562, 4.12 µM; with A549, 15 µM; in the test on HeLa, 7.72 µM. Besides, the inhibition result in test [1] and in test [2] was “Active” in each case. Moreover, the Ratio IC50 in test [6] is 20.

As to `COc1ccc(-c2cn(C3COC4=C(Cl)C(=O)C(=O)c5cccc3c54)nn2)cc1` (centres undefined), the IC50 stood at 7.08 µM in the test on HL-60, 29.8 µM in the test with K562, 51.1 µM in the test on A549 and 40.9 µM in the test with HeLa. Moreover, the inhibition result in test [1] and in test [2] was “Active” in each case.

Consider `COc1ccc(-c2cn(C3COC4=C(Br)C(=O)C(=O)c5cccc3c54)nn2)cc1` (centres undefined), for which the IC50 stood at 10.3 µM with HL-60, 12.7 µM in the test on K562, 45.8 µM with A549 and 26.7 µM in the test on HeLa. Besides, the inhibition entry in test [1] and in test [2] was “Active” in each case.

Regarding `O=C1C(=O)c2cccc3c2C(=C1Br)OCC3n1cc(C2CC2)nn1` (centres undefined), the IC50 was 22.7 µM in the test on HL-60, 40.2 µM in the test on K562, more than 50 µM in the test on A549 and 43.1 µM in the test with HeLa. The inhibition entry in [1] and in [2] was “Active” each time.

Regarding `CCOC(=O)c1cn(C2COC3=C(Br)C(=O)C(=O)c4cccc2c43)nn1` (centres undefined), the IC50 with HL-60, in the test on K562, with A549 and in the test on HeLa was more than 50 µM throughout. The inhibition result in [1] and in test [2] was “Active” in each case.

With `CCCc1ccc(-c2cn(C3COC4=C(Cl)C(=O)C(=O)c5cccc3c54)nn2)cc1` (centres undefined), the IC50 with HL-60 worked out at 2.38 µM; in the test with K562, 3.86 µM; in the test on A549, 28.3 µM; in the test on HeLa it was 24.4 µM. The inhibition result in test [1] and in test [2] was “Active” each time.

Take `O=C1C(=O)c2cccc3c2C(=C1Cl)OCC3n1cc(C2CC2)nn1` (centres undefined): the IC50 was 50 µM with HL-60, 50 µM in the test on K562, more than 100 µM with A549 and more than 100 µM in the test with HeLa. The inhibition entry in test [1] and in [2] was “Active” throughout.

For `CCc1ccc(-c2cn(C3COC4=C(Br)C(=O)C(=O)c5cccc3c54)nn2)cc1` (centres undefined), the IC50 in the test on HL-60 was 4.94 µM; in the test on K562, 14.4 µM; with A549 it was 22.9 µM; with HeLa it was 16.7 µM. For the same compound, the inhibition result in test [1] and in test [2] was “Active” in each case.

In the case of `CC1=C2OCC(C)c3ccc(C)c(c32)C(=O)C1=O` (centres undefined) [MANSONONE E], the IC50 with HL-60 was found to be 10.6 µM; in [5], 18.6 µM; in the test on K562, 12.2 µM; with A549 it was 17.5 µM; with HeLa it was 15.7 µM.

For `O=C1C(=O)c2cccc3c2C(=C1Cl)OCC3n1cc(-c2ccccn2)nn1` (centres undefined), the IC50 in the test on HL-60 came to 2.7 µM; in the test on K562 it was 5.87 µM; with A549, 17.8 µM; in the test with HeLa, 28.9 µM. In addition, the inhibition result in test [1] and in test [2] was “Active” in each case.

Regarding `O=C1C(=O)c2cccc3c2C(=C1Br)OCC3n1cc(-c2ccc(F)cc2)nn1` (centres undefined), the IC50 with HL-60 was determined as 12.3 µM; with K562, 35.5 µM; in the test with A549 it was 50 µM; in the test with HeLa, 30.2 µM. Further, the inhibition entry in test [1] and in test [2] was “Active” each time.
